{"source": "the supplement of paper PMC10307832", "assay_in_all_cases": "relative viability (nuclei count vs DMSO), 5 days (fraction); higher = more cells survive", "key": {"[1]": {"compound": "CN1CCN(CC1)C2=CC(=C(C=C2)NC3=NC=C4C(=N3)N(C5=CC=CC=C5C(=O)N4C)C)OC [XMD8-85] + CCNC(=O)c1noc(-c2cc(C(C)C)c(O)cc2O)c1-c1ccc(CN2CCOCC2)cc1 [Luminespib] (partner 0.01 µM)", "method_in_brief": "(§1)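 A single step with final 0.05% Triton X-100, 1% formaldehyde and 1 ug/ml Hoechst fixed the cells and stained nuclei 5 days after treatment. Lung cancer cell lines in 1536-well plates had been treated by pin tool the day after seeding with one drug alone or a fixed anchor-drug dose plus five library-drug doses (not always all listed) in √10 steps, and nuclei were counted on 4× images. Relative viability is the ratio of nuclei in treated wells to nuclei in vehicle wells, taken as the median of duplicate plates.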"}, "[2]": {"compound": "CN1CCN(CC1)C2=CC(=C(C=C2)NC3=NC=C4C(=N3)N(C5=CC=CC=C5C(=O)N4C)C)OC [XMD8-85] + CC(=O)Nc1cccc(-n2c(=O)n(C3CC3)c(=O)c3c(Nc4ccc(I)cc4F)n(C)c(=O)c(C)c32)c1 [Trametinib] (partner 0.02 µM)", "method_in_brief": "as §1"}, "[3]": {"compound": "O=C(O)C(Cc1ccccc1[N+](=O)[O-])=NNc1nc(-c2ccc(Cl)c(Cl)c2)cs1 (mixture of isomers) [4EGI-1] + O=C(c1cc(Cc2n[nH]c(=O)c3ccccc23)ccc1F)N1CCN(C(=O)C2CC2)CC1 [Olaparib] (partner 8 µM)", "method_in_brief": "as §1"}, "[4]": {"compound": "O=C(O)C(Cc1ccccc1[N+](=O)[O-])=NNc1nc(-c2ccc(Cl)c(Cl)c2)cs1 (mixture of isomers) [4EGI-1] + CS(=O)(=O)N1CCN(Cc2cc3nc(-c4cccc5[nH]ncc45)nc(N4CCOCC4)c3s2)CC1 [Pictilisib] (partner 1 µM)", "method_in_brief": "as §1"}}}
{"cell line": "NCI-H2228", "values": [{"measurement": "relative viability", "setting": "[1]; first compound 0.08 µM", "result": 0.154}, {"measurement": "relative viability", "setting": "[1]; first compound 0.253 µM", "result": 0.209}, {"measurement": "relative viability", "setting": "[1]; first compound 0.8 µM", "result": 0.114}, {"measurement": "relative viability", "setting": "[1]; first compound 2.53 µM", "result": 0.188}, {"measurement": "relative viability", "setting": "[1]; first compound 8 µM", "result": 0.185}, {"measurement": "relative viability", "setting": "[2]; first compound 0.08 µM", "result": 0.354}, {"measurement": "relative viability", "setting": "[2]; first compound 0.253 µM", "result": 0.57}, {"measurement": "relative viability", "setting": "[2]; first compound 0.8 µM", "result": 0.379}, {"measurement": "relative viability", "setting": "[2]; first compound 2.53 µM", "result": 0.387}, {"measurement": "relative viability", "setting": "[2]; first compound 8 µM", "result": 0.181}, {"measurement": "relative viability", "setting": "[3]; first compound 0.5 µM", "result": 0.947}, {"measurement": "relative viability", "setting": "[3]; first compound 1.581 µM", "result": 0.702}, {"measurement": "relative viability", "setting": "[3]; first compound 5 µM", "result": 0.693}, {"measurement": "relative viability", "setting": "[3]; first compound 15.81 µM", "result": 0.536}, {"measurement": "relative viability", "setting": "[3]; first compound 50 µM", "result": 0.128}, {"measurement": "relative viability", "setting": "[4]; first compound 0.5 µM", "result": 0.444}, {"measurement": "relative viability", "setting": "[4]; first compound 1.581 µM", "result": 0.403}, {"measurement": "relative viability", "setting": "[4]; first compound 5 µM", "result": 0.464}, {"measurement": "relative viability", "setting": "[4]; first compound 15.81 µM", "result": 0.335}, {"measurement": "relative viability", "setting": "[4]; first compound 50 µM", "result": 0.298}]}
{"cell line": "NCI-H2085", "values": [{"measurement": "relative viability", "setting": "[1]; first compound 0.08 µM", "result": 0.412}, {"measurement": "relative viability", "setting": "[1]; first compound 0.253 µM", "result": 0.513}, {"measurement": "relative viability", "setting": "[1]; first compound 0.8 µM", "result": 0.403}, {"measurement": "relative viability", "setting": "[1]; first compound 2.53 µM", "result": 0.348}, {"measurement": "relative viability", "setting": "[1]; first compound 8 µM", "result": 0.302}, {"measurement": "relative viability", "setting": "[2]; first compound 0.08 µM", "result": 0.651}, {"measurement": "relative viability", "setting": "[2]; first compound 0.253 µM", "result": 0.469}, {"measurement": "relative viability", "setting": "[2]; first compound 0.8 µM", "result": 0.427}, {"measurement": "relative viability", "setting": "[2]; first compound 2.53 µM", "result": 0.514}, {"measurement": "relative viability", "setting": "[2]; first compound 8 µM", "result": 0.355}, {"measurement": "relative viability", "setting": "[3]; first compound 0.5 µM", "result": 0.764}, {"measurement": "relative viability", "setting": "[3]; first compound 1.581 µM", "result": 0.72}, {"measurement": "relative viability", "setting": "[3]; first compound 5 µM", "result": 0.739}, {"measurement": "relative viability", "setting": "[3]; first compound 15.81 µM", "result": 0.726}, {"measurement": "relative viability", "setting": "[3]; first compound 50 µM", "result": 0.374}, {"measurement": "relative viability", "setting": "[4]; first compound 0.5 µM", "result": 0.538}, {"measurement": "relative viability", "setting": "[4]; first compound 1.581 µM", "result": 0.513}, {"measurement": "relative viability", "setting": "[4]; first compound 5 µM", "result": 0.52}, {"measurement": "relative viability", "setting": "[4]; first compound 15.81 µM", "result": 0.507}, {"measurement": "relative viability", "setting": "[4]; first compound 50 µM", "result": 0.439}]}
{"cell line": "SW 900", "values": [{"measurement": "relative viability", "setting": "[1]; first compound 0.08 µM", "result": 0.164}, {"measurement": "relative viability", "setting": "[1]; first compound 0.253 µM", "result": 0.195}, {"measurement": "relative viability", "setting": "[1]; first compound 0.8 µM", "result": 0.175}, {"measurement": "relative viability", "setting": "[1]; first compound 2.53 µM", "result": 0.165}, {"measurement": "relative viability", "setting": "[1]; first compound 8 µM", "result": 0.152}, {"measurement": "relative viability", "setting": "[2]; first compound 0.08 µM", "result": 0.813}, {"measurement": "relative viability", "setting": "[2]; first compound 0.253 µM", "result": 0.746}, {"measurement": "relative viability", "setting": "[2]; first compound 0.8 µM", "result": 0.935}, {"measurement": "relative viability", "setting": "[2]; first compound 8 µM", "result": 0.759}, {"measurement": "relative viability", "setting": "[3]; first compound 0.5 µM", "result": 0.923}, {"measurement": "relative viability", "setting": "[3]; first compound 1.581 µM", "result": 0.812}, {"measurement": "relative viability", "setting": "[3]; first compound 5 µM", "result": 0.936}, {"measurement": "relative viability", "setting": "[3]; first compound 15.81 µM", "result": 0.552}, {"measurement": "relative viability", "setting": "[3]; first compound 50 µM", "result": 0.23}]}
{"cell line": "H3255", "values": [{"measurement": "relative viability", "setting": "[1]; first compound 0.08 µM", "result": 1.03}, {"measurement": "relative viability", "setting": "[1]; first compound 0.253 µM", "result": 0.829}, {"measurement": "relative viability", "setting": "[1]; first compound 0.8 µM", "result": 0.816}, {"measurement": "relative viability", "setting": "[1]; first compound 2.53 µM", "result": 0.889}, {"measurement": "relative viability", "setting": "[1]; first compound 8 µM", "result": 0.707}, {"measurement": "relative viability", "setting": "[2]; first compound 0.08 µM", "result": 0.576}, {"measurement": "relative viability", "setting": "[2]; first compound 0.253 µM", "result": 0.593}, {"measurement": "relative viability", "setting": "[2]; first compound 0.8 µM", "result": 0.465}, {"measurement": "relative viability", "setting": "[2]; first compound 2.53 µM", "result": 0.554}, {"measurement": "relative viability", "setting": "[2]; first compound 8 µM", "result": 0.373}, {"measurement": "relative viability", "setting": "[3]; first compound 0.5 µM", "result": 0.591}, {"measurement": "relative viability", "setting": "[3]; first compound 1.581 µM", "result": 0.501}, {"measurement": "relative viability", "setting": "[3]; first compound 5 µM", "result": 0.541}, {"measurement": "relative viability", "setting": "[3]; first compound 15.81 µM", "result": 0.5}, {"measurement": "relative viability", "setting": "[3]; first compound 50 µM", "result": 0.405}, {"measurement": "relative viability", "setting": "[4]; first compound 0.5 µM", "result": 0.578}, {"measurement": "relative viability", "setting": "[4]; first compound 1.581 µM", "result": 0.431}, {"measurement": "relative viability", "setting": "[4]; first compound 5 µM", "result": 0.516}, {"measurement": "relative viability", "setting": "[4]; first compound 15.81 µM", "result": 0.361}, {"measurement": "relative viability", "setting": "[4]; first compound 50 µM", "result": 0.453}]}
